Assay results as given in the supplement of paper PMC10307832.

Columns and labels:
Test in all cases: relative viability (nuclei count vs DMSO), 5 days (fraction); higher = more cells survive
Tozasertib + Luminespib = compound: Cc1cc(Nc2cc(N3CCN(C)CC3)nc(Sc3ccc(NC(=O)C4CC4)cc3)n2)n[nH]1 [Tozasertib] + CCNC(=O)c1noc(-c2cc(C(C)C)c(O)cc2O)c1-c1ccc(CN2CCOCC2)cc1 [Luminespib] (partner 0.01 µM)
Method in brief: (§1)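 Lung cancer cell lines were seeded in 1536-well plates and dosed by pin tool the next day, with either a single drug or a fixed anchor-drug dose combined with five library-drug doses (not always all listed) spaced in √10 steps. Five days later, one step fixed the cells and stained their nuclei (final 0.05% Triton X-100, 1% formaldehyde, 1 ug/ml Hoechst), and nuclei were counted on 4× images. Relative viability is the nuclei count in treated wells divided by the count in vehicle wells, and each value is the median of duplicate plates.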

Tozasertib + Pictilisib = compound: Cc1cc(Nc2cc(N3CCN(C)CC3)nc(Sc3ccc(NC(=O)C4CC4)cc3)n2)n[nH]1 [Tozasertib] + CS(=O)(=O)N1CCN(Cc2cc3nc(-c4cccc5[nH]ncc45)nc(N4CCOCC4)c3s2)CC1 [Pictilisib] (partner 1 µM)
Method in brief: as §1

Tozasertib + Alpelisib = compound: Cc1cc(Nc2cc(N3CCN(C)CC3)nc(Sc3ccc(NC(=O)C4CC4)cc3)n2)n[nH]1 [Tozasertib] + Cc1nc(NC(=O)N2CCC[C@H]2C(N)=O)sc1-c1ccnc(C(C)(C)C(F)(F)F)c1 [Alpelisib] (partner 2 µM)
Method in brief: as §1

Tozasertib + Olaparib = compound: Cc1cc(Nc2cc(N3CCN(C)CC3)nc(Sc3ccc(NC(=O)C4CC4)cc3)n2)n[nH]1 [Tozasertib] + O=C(c1cc(Cc2n[nH]c(=O)c3ccccc23)ccc1F)N1CCN(C(=O)C2CC2)CC1 [Olaparib] (partner 8 µM)
Method in brief: as §1

Row | Cell Line | relative viability (Tozasertib + Luminespib; first compound 0.004 µM) | relative viability (Tozasertib + Luminespib; first compound 0.01265 µM) | relative viability (Tozasertib + Luminespib; first compound 0.1265 µM) | relative viability (Tozasertib + Pictilisib; first compound 0.004 µM) | relative viability (Tozasertib + Pictilisib; first compound 0.01265 µM) | relative viability (Tozasertib + Pictilisib; first compound 0.04 µM) | relative viability (Tozasertib + Pictilisib; first compound 0.1265 µM) | relative viability (Tozasertib + Alpelisib; first compound 0.004 µM) | relative viability (Tozasertib + Alpelisib; first compound 0.01265 µM) | relative viability (Tozasertib + Alpelisib; first compound 0.04 µM) | relative viability (Tozasertib + Alpelisib; first compound 0.1265 µM) | relative viability (Tozasertib + Olaparib; first compound 0.004 µM) | relative viability (Tozasertib + Olaparib; first compound 0.01265 µM) | relative viability (Tozasertib + Olaparib; first compound 0.04 µM) | relative viability (Tozasertib + Olaparib; first compound 0.1265 µM) | relative viability (Tozasertib + Luminespib; first compound 0.04 µM)
1 | 201T | 1.12 | 1.06 | 1.11 | 0.716 | 0.581 | 0.709 | 0.537 | 0.993 | 0.968 | 1.06 | 1 | 0.846 | 0.838 | 0.849 | 0.814 | –
2 | A-427 | 0.983 | 0.857 | 0.481 | 0.676 | 0.585 | 0.814 | 0.168 | 1.06 | 1.1 | 1.17 | 0.751 | 0.769 | 0.645 | 0.734 | 0.47 | 0.97
3 | ABC-1 | 0.521 | 0.638 | 0.686 | 0.782 | – | 0.625 | 0.291 | 0.916 | 1.06 | 0.721 | 0.816 | 0.832 | 0.704 | 0.394 | 0.613 | 0.402
4 | BEN | 0.302 | 0.279 | 0.268 | 0.56 | 0.575 | 0.66 | 0.456 | 1.04 | 0.948 | 1.14 | 0.931 | – | 1.09 | 0.931 | 0.956 | 0.332
5 | CAL-12T | 0.288 | 0.405 | 0.368 | 0.472 | 0.386 | 0.414 | 0.171 | 1.31 | 1.23 | 1.33 | 1.08 | – | 0.741 | 0.769 | 0.55 | 0.58
6 | COR-L23 | 0.836 | 0.619 | 0.637 | 0.724 | 0.756 | 0.783 | 0.397 | 0.827 | 0.763 | 0.585 | 0.699 | 0.375 | 0.378 | 0.3 | 0.299 | 0.618
7 | COR-L 105 | 0.842 | 0.966 | 0.609 | 0.434 | 0.511 | 0.412 | 0.267 | – | 1.29 | 1.32 | 0.739 | 0.681 | 0.725 | 0.716 | 0.754 | 0.761
8 | ChaGo-K-1 | 0.643 | 0.672 | 0.45 | 0.849 | 0.676 | 0.771 | 0.256 | – | – | – | – | 0.4 | 0.386 | 0.407 | 0.372 | 0.623
9 | EKVX | 0.753 | 0.872 | 0.694 | 0.383 | 0.443 | 0.527 | 0.348 | 0.779 | 0.846 | 1.01 | 0.878 | 0.93 | 0.773 | 0.798 | 0.688 | 0.827
10 | EMC-BAC-2 | 1.15 | 1.11 | 0.827 | 0.547 | 0.541 | 0.654 | 0.395 | 0.771 | – | 0.724 | 0.428 | 0.511 | 0.437 | 0.414 | 0.366 | 1.3
11 | EPLC-272H | 0.267 | 0.307 | 0.288 | 0.442 | 0.31 | 0.326 | – | 0.845 | 0.789 | 1.11 | – | 0.729 | – | – | 0.341 | 0.197
12 | H3255 | 0.753 | 0.67 | 0.879 | – | 0.463 | 0.533 | 0.413 | 0.592 | 0.654 | 0.762 | 0.658 | 0.554 | 0.564 | 0.602 | 0.503 | 1.02
13 | HARA | 0.659 | 0.681 | 0.484 | 0.421 | 0.44 | 0.373 | 0.243 | 0.955 | 0.795 | 0.994 | 0.305 | 0.821 | 1.2 | 0.983 | 0.349 | 0.496
14 | HCC-15 | 0.296 | 0.282 | 0.238 | 0.702 | 0.653 | 0.802 | 0.585 | 0.942 | 0.841 | – | 0.728 | 0.715 | – | 0.688 | 0.597 | 0.306
15 | HCC-78 | – | – | – | 0.235 | 0.203 | 0.202 | 0.171 | 0.38 | 0.305 | 0.46 | 0.241 | 0.885 | 0.705 | 0.98 | 0.758 | –
16 | HCC-366 | – | – | – | 0.106 | 0.135 | 0.122 | 0.0817 | 0.37 | 0.476 | 0.558 | 0.13 | 0.333 | 0.333 | 0.312 | 0.127 | –
17 | NCI-H522 | 1.36 | 1.48 | 0.896 | – | – | – | – | – | – | – | – | 0.619 | – | 0.603 | 0.531 | 1
18 | NCI-H1563 | 0.48 | 0.635 | 0.48 | 0.61 | 0.641 | 0.684 | 0.53 | 0.944 | 0.794 | 0.94 | 0.874 | – | – | – | – | 0.484
19 | NCI-H1650 | 0.199 | 0.2 | 0.197 | 0.589 | 0.557 | 0.639 | 0.204 | – | – | – | – | 0.818 | 0.721 | 0.885 | 0.722 | 0.223
20 | NCI-H1703 | – | – | – | 0.287 | 0.221 | 0.248 | 0.23 | 0.364 | 0.357 | 0.445 | 0.209 | 0.492 | 0.391 | 0.476 | 0.45 | –
21 | NCI-H2342 | 0.646 | – | 0.767 | – | – | – | – | – | – | – | – | 0.43 | 0.44 | 0.471 | 0.443 | 0.697
22 | SW 900 | 0.167 | 0.188 | 0.173 | – | – | – | – | – | – | – | – | 0.802 | 0.809 | 0.851 | 0.619 | 0.205
